# From article PMC10120551, “Novel Glu-based pyrazolo[3,4-d]pyrimidine analogues: design, synthesis and biological evaluation as DHFR and TS dual inhibitors” (Journal of Enzyme Inhibition and Medicinal Chemistry, 2023)
# How the values were obtained:
# OVCAR-3 = details: OVCAR-3, Ovarian cancer; five-dose 0.01–100 µM
# SNB-75 = assay: cells; details: Homo sapiens
# MOLT-4 = assay: NCI one-dose screen (SRB); assay type: cell-based, human; details: MOLT-4, Leukaemia; 10 µM single dose
# Description: (§1) The growth percentage (G%) and cell viability of the herein target compounds 6a–l, 7a,b, and 9a–c have been screened towards a full panel of 59 cancer cells at NCI’s Developmental Therapeutics Program (NCI-DTP, MD, USA)[21]. The submitted analogues were initially examined for preliminary in vitro anticancer activity using sulforhodamine B (SRB) assay at 10 µM as a single dose to evaluate cell growth and viability according to the procedure of Drug Evaluation Branch[22]^,[23].
# (§2) Different types of tumours – colon, NSCLC, leukaemia, CNS, renal, breast, ovarian, melanoma, and prostate cancers – were investigated as a full panel of 59 cell lines, and the attained results are cited in Figures S1–S17 (see Supplementary Material) where the value recorded is the growth relative to that of both the negative control and zero-time number of cells in which both growth inhibition (GI%; 0–100%) and lethality (L%; 0–100%) percentages can be identified. The growth inhibition means percentages (MGI%) for the examined target analogues towards the different treated 59 cancer cells were presented in Figure 2.
# (§3) The designed analogues were submitted to NCI-Chemotherapeutic Agents Repository (MD, USA) for screening on a panel of 59 cancer cell lines. All compounds were initially examined at 10 µM concentration (Single-Dose Screen), and then the most efficient analogue 6i was screened further at 0.01–100 µM (Five-Dose Screen). The screening procedures were performed according to NCI-Drug Evaluation Branch protocol using SRB protein assay, as described previously[21]^,[66]. The experimental procedures were detailed in the Supporting Information.
# OVCAR-4 [1] = assay: NCI one-dose screen (SRB); assay type: cell-based, human; details: OVCAR-4, Ovarian cancer; 10 µM single dose
# Description: as §1, §2, §3
# M14 = assay: NCI one-dose screen (SRB); assay type: cell-based, human; details: M14, Melanoma; 10 µM single dose
# Description: as §1, §2, §3
# DU-145 = assay: NCI one-dose screen (SRB); assay type: cell-based, human; details: DU-145, Prostate; 10 µM single dose
# Description: as §1, §2, §3
# 786-0 = assay: NCI one-dose screen (SRB); assay type: cell-based, human; details: 786-0, Renal; 10 µM single dose
# Description: as §1, §2, §3
# NCI-H23 = assay: NCI one-dose screen (SRB); assay type: cell-based, human; details: NCI-H23, NSCLC; 10 µM single dose
# Description: as §1, §2, §3
# RPMI-8226 [2] = assay: NCI one-dose screen (SRB); assay type: cell-based, human; details: RPMI-8226, Leukaemia; 10 µM single dose
# Description: as §1, §2, §3
# LOX IMVI = assay: NCI one-dose screen (SRB); assay type: cell-based, human; details: Melanoma, 10 µM single dose
# Description: as §1, §2, §3
# MDA-MB-435 [3] = assay: NCI one-dose screen (SRB); assay type: cell-based, human; details: MDA-MB-435, Melanoma; 10 µM single dose
# Description: as §1, §2, §3
# UACC-62 = assay: NCI one-dose screen (SRB); assay type: cell-based, human; details: UACC-62, Melanoma; 10 µM single dose
# Description: as §1, §2, §3
# CCRF-CEM [4] = assay: NCI one-dose screen (SRB); assay type: cell-based, human; details: Leukaemia, 10 µM single dose
# Description: as §1, §2, §3
# MCF7 [5] = assay: NCI one-dose screen (SRB); assay type: cell-based, human; details: MCF7, Breast; 10 µM single dose
# Description: as §1, §2, §3
# BT-549 = assay: NCI one-dose screen (SRB); assay type: cell-based, human; details: BT-549, Breast cancer; 10 µM single dose
# Description: as §1, §2, §3
# SW-620 = assay: NCI one-dose screen (SRB); assay type: cell-based, human; details: SW-620, Colon cancer; 10 µM single dose
# Description: as §1, §2, §3
# MDA-MB-468 = assay: NCI one-dose screen (SRB); assay type: cell-based, human; details: MDA-MB-468, Breast; 10 µM single dose
# Description: as §1, §2, §3
# HS 578 T = assay: NCI one-dose screen (SRB); assay type: cell-based, human; details: Breast cancer, 10 µM single dose
# Description: as §1, §2, §3
# EKVX = assay: cells; details: Homo sapiens
# SN12C = details: Renal cancer, five-dose 0.01–100 µM
# MCF7 [6] = assay: cells; details: Homo sapiens
# MDA-MB-435 [7] = details: MDA-MB-435, Melanoma; five-dose 0.01–100 µM
# CCRF-CEM [8] = assay: cells; details: Homo sapiens
# OVCAR-8 = assay: cells; details: Homo sapiens
# TK-10 = details: TK-10, Renal cancer; five-dose 0.01–100 µM
# CCRF-CEM [9] = details: Leukaemia, five-dose 0.01–100 µM
# KM12 = assay: cells; details: Homo sapiens
# SR = details: Leukaemia, five-dose 0.01–100 µM
# NCI-H226 = assay: cells; details: Homo sapiens
# OVCAR-4 [10] = assay: cells; details: Homo sapiens
# CAKI-1 = details: CAKI-1, Renal cancer; five-dose 0.01–100 µM
# RPMI-8226 [11] = details: RPMI-8226, Leukaemia; five-dose 0.01–100 µM
# SK-OV-3 = assay: cells; details: Homo sapiens
smiles,measurement,setting,value
CCOC(=O)CC[C@H](NC(=O)c1ccc(NC(=O)Cn2cnc3c(c(C)nn3-c3ccc(Br)cc3)c2=O)cc1)C(=O)OCC [Compound 6i],TGI,OVCAR-3,61.3 µM
same,GI50,SNB-75; SNB-75,14.9 µM
same,CC50,"SNB-75; SNB-75, read-out: LC50",> 100 µM
same,GI%,MOLT-4,52.51%
same,GI%,OVCAR-4 [1],66.09%
same,GI%,M14,74.15%
same,GI%,DU-145,85.62%
same,GI%,786-0,82.93%
same,GI%,NCI-H23,87.19%
same,GI%,RPMI-8226 [2],53.52%
same,GI%,LOX IMVI,78.49%
same,GI%,MDA-MB-435 [3],57.10%
same,GI%,UACC-62,63.82%
same,GI%,CCRF-CEM [4],70.05%
same,GI%,MCF7 [5],97.72%
same,GI%,BT-549,66.64%
same,GI%,SW-620,62.17%
same,GI%,MDA-MB-468,92.44%
same,GI%,HS 578 T,75.80%
same,GI50,EKVX,10.4 µM
same,CC50,EKVX; read-out: LC50,71.7 µM
same,TGI,SN12C,>100 µM
same,GI50,MCF7 [6]; MCF7,3.93 µM
same,CC50,"MCF7 [6]; MCF7, read-out: LC50",59.4 µM
same,TGI,MDA-MB-435 [7],34.3 µM
same,GI50,CCRF-CEM [8],14.5 µM
same,CC50,CCRF-CEM [8]; read-out: LC50,> 100 µM
same,GI50,OVCAR-8; OVCAR-8,8.17 µM
same,CC50,"OVCAR-8; OVCAR-8, read-out: LC50",> 100 µM
same,TGI,TK-10,86.2 µM
same,TGI,CCRF-CEM [9],>100 µM
same,GI50,KM12; KM12,16.1 µM
same,CC50,"KM12; KM12, read-out: LC50",> 100 µM
same,TGI,SR,>100 µM
same,GI50,NCI-H226,4.54 µM
same,GI50,OVCAR-4 [10]; OVCAR-4,13.4 µM
same,CC50,"OVCAR-4 [10]; OVCAR-4, read-out: LC50",76.7 µM
same,TGI,CAKI-1,22.1 µM
same,TGI,RPMI-8226 [11],>100 µM
same,GI50,SK-OV-3; SK-OV-3,21.8 µM
same,CC50,"SK-OV-3; SK-OV-3, read-out: LC50",> 100 µM
